The record followed here is patent US20140221389A1, “USE OF 4-AMINO-5-FLUORO-3-[6-(4-METHYLPIPERAZIN-1-YL)-1H-BENZIMIDAZOL-2-YL]-1H-QUINOLIN-2-ONE IN THE TREATMENT OF CANCER IN MODERATE HEPATIC IMPAIRED PATIENTS” (Novartis AG, priority 2011, published 2014).

The data set is described as follows: Plasma pharmacokinetics of COMPOUND I in Phase I and II studies. The data set is classed as in vivo, patients.

As to `CN1CCN(c2ccc3nc(-c4c(N)c5c(F)cccc5[nH]c4=O)[nH]c3c2)CC1` [COMPOUND I, 4-amino-5-fluoro-3-[6-(4-methylpiperazin-1-yl)-1H-benzimidazol-2-yl]-1H-quinolin-2-one], the “inter-subject coefficient of variation (CV %) for AUC” value (500 mg/day on a 5 days on/2 days off dosing schedule) is reported as “around 50%”. Further, the plasma pharmacokinetic result (all doses tested from 25 to 600 mg, continuous daily dosing regimen) is given as “time dependent”. Further, the “exposure of COMPOUND I with dose” value (doses of 400 mg/day and above, continuous daily dosing regimen) is recorded as “prolonged over-proportional exposure”.
